How the values were obtained:
[1] = test system: RAW 264.7 murine monocyte/macrophage cell line (PMA-stimulated respiratory burst); assay: In vitro anti-inflammatory activity by inhibition of macrophage activation (luminol chemiluminescence, PMA-stimulated); assay type: cell-based, mouse; details: for inhibition at 1000 µM / inhibition at 3000 µM / inhibition at 10000 µM / inhibition at 30000 µM: Mus musculus, RAW264.7, RAW 264.7, PMA 100 ng, luminol; for inhibition at 1000 µM: 1 mM; for inhibition at 3000 µM: 3 mM; for inhibition at 10000 µM: 10 mM; for inhibition at 30000 µM: 30 mM
Procedure: Activation of alveolar macrophages is a critical component of pulmonary inflammation. In their activated state, alveolar macrophages secrete a variety of inflammatory mediators and reactive oxygen species. In the present in vitro model of inflammation, mouse macrophages are activated by phorbol-12-myristate-13-acetate (PMA). The intensity of macrophage activation in the presence or absence of the subject compounds is determined by measuring the respiratory burst (release of reactive oxygen species) of the macrophages.
The RAW 264.7 cell line (American Type Culture Collection, Rockville, Md., USA, Accession No. TIE 71) is a murine monocyte/macrophage line, the cells of which show many of the differentiative functions of a macrophage. Like macrophages, the cells are capable of phagocytosis and undergo an oxidative burst (increased oxygen consumption) and production of oxygen radicals (e.g., superoxide) in response to appropriate signals. Agents that inhibit the activation of these cells in vitro so as to inhibit the respiratory burst and corresponding production of oxygen radicals associated with activation interdict a critical step in the inflammatory process.
The respiratory burst and corresponding production of oxygen radicals that accompany macrophage activation can be measured in a variety of ways, including chemiluminescence based on the reaction of the oxygen radicals with luminol added to the culture medium (see M. A. Trush et al., 1978, "The Generation of Chemiluminescence by Phagocytic Cells.", Methods in Enzymology 57: 462-494). Chemiluminescence generated from luminol in the culture medium of macrophage cell lines is recognized in the art as a marker of macrophage activation. Materials:
Cell line: RAW 264.7 (ATCC TIB-71, attachment dependent);
Culture medium: Dulbecco's Modified Eagle's Medium (DMEM, Sigma Chemical Co. Cat. No. D-7777) with 10% Fetal Bovine Serum (FBS);
Standard protocol for culturing cell lines: in T-75 or T-150 flasks; 37° C.; 95% air, 5% CO2; 100% humidity;
Cell line is passaged when approximately 80% confluent; with trypsin (1 mg/mL) and ethylenediamine tetraacetic acid (EDTA) (1 mM in Ca-Mg free Hank's balanced salt solution); at 1:4 to 1:5 split;
All procedures are performed aseptically in a Class II biological safety cabinet using standard Biosafety Level 2 (BL-2 containment procedures. In order to prevent genetic drift in stock cell lines, fresh cultures are prepared at approximately monthly intervals with cells thawed from liquid nitrogen storage. Methodology:
After cell passage, count cells with a hemocytometer; Adjust cell concentration to approximately 1,000,000 cells per mL;
Suspend cells in DMEM lacking phenol red and without FBS;
Pipette 1 mL of cell suspension into a standard luminometer cuvette (12×75 mm), commercially obtainable from Analytical Luminescence Laboratories, San Diego, Calif., USA;
Add luminol to final concentration of 0.2 mM;
Add test compound dissolved in phosphate buffered saline (PBS), or in dimethyl sulfoxide (DMSO) for final concentration levels ranging from 1 to 30 mM;
Add 100 nanograms of phorbol myristate acetate (PMA); and
Wait 1 minute and read photo counts (i.e., luminescence) on a Monolight 2010 luminometer available from Analytical Luminescence Laboratories, San Diego.

premature fetal rabbits = assay: Surfactant activity in RDS model using premature fetal rabbits (dynamic lung compliance); assay type: in vivo, rabbit; details: fetal rabbits 27 days gestation, 0.2 mL endotracheal instillation, 30 minute intervals for 90 minutes
Procedure: A common in vivo model for the evaluation of surfactants is lung compliance in premature fetal rabbits. This method is described in Revak et al., Am. Rev. Respir. Dir. (1986) 134:1258-1265. In this assay, the effectiveness of the subject compounds as lung surfactants is determined by evaluating dynamic lung compliance in premature fetal rabbits which are known to have difficulty initiating breathing due to low levels of natural lung surfactant.
1. The test animals are fetal rabbits delivered prematurely at 27 days of gestation.
2. The test solution is prepared by suspending the Formula I compound ([…]) in 6 mL of 10 mM HEPES buffer with sodium chloride (150 mM) at a pH of 7.4.
3. 0.2 mL of test solution is administered to the fetal rabbit before breathing commenced by endotracheal instillation and then monitored for breathing. The control group receives saline.
4. The fetal rabbit is ventilated and monitored for breathing.
5. After 30 minutes, the rabbit is examined for quality of breathing and color. A healthy pink color is indicative of good breathing. […] The higher the value of measured compliance, the better the breathing of the test animal.
6. Compliance values are determined at 30 minute intervals for 90 minutes.

Mouse Tracheal Mucus = assay: Mucolytic activity in mouse tracheal mucus (phenol red secretion, aerosol); assay type: in vivo; details: mice, 25 mg/mL in saline, approximately 100 mg/kg, 5 mice, saline control zero percent
Description: The invention provides a method of alleviating respiratory distress due to tenacious pulmonary mucous secretions in a patient suffering from such distress. In the preferred embodiment, the method is accomplished by the intermittent inhalation of an aerosol or dry powder formulation of α-tocopheryl-phosphocholine to deliver an effective mucolytic amount of α-tocopheryl-phosphocholine to the lung airways. […] The in vivo mucolytic assay is similar to that described by Chand et al. Agents and Actions, (1993) 38:165-170, incorporated herein by reference.
The procedure, which delivers the test compound to mice as an aerosol, is a modified assay for the evaluation of mucolytic activity in mice as described by Chand et al., previously cited.
1. The test animals are Hsd:1CR(CD-1) mice that weigh approximately 25 g each.
2. The test compound is diluted in normal saline to a concentration of 25 mg/mL and administered using a human De Vilbiss atomizer Model No. 15 at approximately 100 mg/kg. The control group receives saline. The nozzle is placed in the mouth of the mouse and 2 spray doses are given.
3. After 30 minutes, phenol red dissolved as a 5% solution in saline is given IP at a dose of 0.1 mL/10 g body weight.
4. […]
6. The amount of phenol red secreted into the trachea is quantitated photometrically at 546 nm. […]

[2] = test system: Histamine-Induced Airway Resistance; assay: Histamine-induced airway resistance in anesthetized guinea pigs (total pulmonary resistance); assay type: in vivo, guinea pig; details: after induction with histamine, salbutamol 10 μg/kg or same equivalent dosage
Procedure: The following is a protocol for the evaluation of anti-histamine activity in anesthetized guinea pigs.
1. Guinea pigs of 650-1000 g are used to facilitate catheterization of the jugular vein and carotid artery. The guinea pigs are anesthetized with 35-45 mg/kg pentobarbital sodium. When or if the recordings are unstable, anesthetic additions are made during the course of the intervention. The cutdown is a ventral medial incision over the cervical area so that the trachea, jugular vein and carotid artery can be cannulated. The animals are immediately attached to a volume regulated Harvard® rodent respirator, Model 683, via a tracheostomy and the respirator is set at 60 respirations per minute and a volume of 8 ml/kg to maintain a normal arterial P-CO2 of approximately 40 mmHg. […] These two parameters are measured before and after each drug is given and at each increment in the dose response studies with each drug candidate and recorded. Total pulmonary resistance (TPR) is calculated as the difference between the expiratory pressure and inspiratory pressures with a constant volume.
After the anesthetic and muscle relaxant are given, the animal is allowed to stabilize. […] The dose-related increases or decreases are quantitated against these controls to determine the percent inhibition of histamine activity. […]

SMILES	anti-inflammatory activity with increasing concentration ([1]; 1 to 30 mM, in contrast to α-tocopherol)	inhibition at 1000 µM [1]	inhibition at 3000 µM [1]	inhibition at 10000 µM [1]	inhibition at 30000 µM [1]	compliance values (dynamic lung compliance) (premature fetal rabbits)	average measured percent change in mucolytic activity (Mouse Tracheal Mucus)	TPR course after administration [2]
Cc1c(C)c2c(c(C)c1OP(=O)([O-])OCC[N+](C)(C)C)CCC(C)(CCCC(C)CCCC(C)CCCC(C)C)O2 (stereo not drawn) [CPR 2001, α-tocopheryl-phosphocholine]	anti-inflammatory activity markedly increases	5%	13%	31%	56%	significantly greater compliance values	about 82.6%	–
CC(=O)N[C@@H](CS)C(=O)O [N-acetylcysteine, reference compound]	–	–	–	–	–	–	about 59.5%	–
CC(C)(C)NCC(O)c1ccc(O)c(CO)c1 (stereo not shown) [salbutamol]	–	–	–	–	–	–	–	briefly increased and then decreased below the control value
Cc1c(C)c2c(c(C)c1O)CCC(C)(CCCC(C)CCCC(C)CCCC(C)C)O2 (stereo not drawn) [α-tocopherol, reference compound]	–	-3%	-6%	-6%	-14%	–	–	–

From patent US5883084A, “Treatment of respiratory diseases utilizing α-tocopheryl-phosphocholine” (Clarion Pharmaceuticals Inc., priority 1998, dated 1999)
